Experimental data as given in PubChem BioAssay (NCI).
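The compound was tested at five concentrations on cells cultured in 96-well plates, with a 48-hour exposure period. TGI marks complete inhibition of growth.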

Key:
Test in all cases: inhibition of tumour cell growth, NCI panel, 48 h
[1] = system: NCI-H23 lung
[2] = system: SK-MEL-28 melanoma
[3] = system: SF-268 CNS
[4] = system: UACC-62 melanoma
[5] = system: T-47D breast
[6] = system: KM12 colon
[7] = system: OVCAR-5 ovarian
[8] = system: HT29 colon
[9] = system: UO-31 renal
[10] = system: SF-295 CNS

| SMILES | TGI [1] [µM] | TGI [2] [µM] | TGI [3] [µM] | TGI [4] [µM] | TGI [5] [µM] | TGI [6] [µM] | TGI [7] [µM] | TGI [8] [µM] | TGI [9] [µM] | TGI [10] [µM] |
| --- | --- | --- | --- | --- | --- | --- | --- | --- | --- | --- |
| Cc1ccc(C(=O)c2[nH]c(Nc3cc(C)ccn3)c(C(=S)Nc3ccccc3)c2N)cc1 | > 100 | > 100 | > 100 | > 100 | > 100 | > 100 | > 100 | > 100 | > 100 | > 100 |
| Cc1ccsc1C(=S)Nc1ccc(Cl)c(C(=O)OC(C(C)C)C(C)C)c1 | > 100 | > 100 | > 100 | > 100 | > 100 | > 100 | > 100 | 71.6 | > 100 | > 100 |
| Cc1cc(C)nc(NS(=O)(=O)c2ccc(Nc3c4ccccc4nc4c(C(=O)N5CCN(CCOS(C)(=O)=O)CC5)ccc(Cl)c34)cc2)n1 | > 100 | > 100 | > 100 | > 100 | – | > 100 | > 100 | > 100 | > 100 | > 100 |
| CCC1(CC)C(=O)NC(=S)N=C1N | > 100 | > 100 | > 100 | > 100 | – | – | > 100 | > 100 | > 100 | > 100 |
| CCNC(=S)N/N=C/c1ccccn1 | 84.8 | > 100 | 7.56 | 26.1 | > 100 | > 100 | > 100 | > 100 | 23.6 | > 100 |
| COc1cc2c(cc1O)CC[n+]1cc3c(OC)c(OC)ccc3cc1-2 | > 100 | > 100 | > 100 | > 100 | > 100 | > 100 | > 100 | > 100 | > 100 | > 100 |
| NC(=S)N=Nc1c(O)cc(Nc2ccc(Cl)cc2Cl)c2ccccc12 | 97.7 | > 100 | > 100 | 29.4 | 93.6 | > 100 | > 100 | > 100 | > 100 | 45.9 |
| O=C(/C=C1\C[C@H]2C=Nc3ccccc3C(=O)N2C1)NCCCCCNC(=O)/C=C1\C[C@H]2C=Nc3ccccc3C(=O)N2C1 | 26.2 | 27.4 | 18.5 | 28.8 | 15.7 | 41 | 33.7 | 27.4 | 3.8 | 33 |
| Cc1cc(C)nc(NS(=O)(=O)c2ccc(Nc3c4ccccc4nc4c(C(=O)NCCO)cccc34)cc2)n1 | > 100 | 41.3 | 58.6 | > 100 | > 100 | 22.9 | 91.7 | 38.3 | – | 53.5 |
| O=C(NCCCNCCCCNCCCNC(=O)C(F)(F)F)C(F)(F)F | > 100 | > 100 | > 100 | > 100 | > 100 | > 100 | > 100 | > 100 | > 100 | > 100 |
| c1ccc(-c2ccc(N=NN3CCCC3)cc2)cc1 | > 100 | – | > 100 | > 100 | > 100 | > 100 | > 100 | – | > 100 | > 100 |
| CCN(C(=O)N[C@H](C(=O)N[C@@H](C)C(=O)OC)C(C)C)c1ccccc1 | > 100 | > 100 | > 100 | 55.7 | > 100 | > 100 | > 100 | > 100 | > 100 | > 100 |
| CCOP(=O)(OCC)c1cc(-c2ccccc2)ccc1N | > 100 | > 100 | > 100 | > 100 | – | > 100 | > 100 | > 100 | > 100 | > 100 |
| CC[P+](C#Cc1ccccc1)(c1ccccc1)c1ccccc1 | 7.51 | 4.68 | 8.71 | 3.45 | 6.88 | 3.29 | 16.3 | 6.98 | 27 | 21.1 |
| O=c1oc2ccccc2c2nc3ccccc3cc12 | > 100 | > 100 | – | > 100 | > 100 | > 100 | > 100 | > 100 | > 100 | > 100 |
| COn1cc(CO)c2ccccc21 | > 100 | > 100 | > 100 | > 100 | > 100 | > 100 | 42.5 | > 100 | > 82 | > 100 |
| C=C1CC=CC(C)(C)C1C/C=C(\C)C(O)CBr (configuration not stated) | > 100 | > 100 | > 100 | > 100 | – | > 100 | > 100 | > 100 | > 100 | > 100 |
| C/C(=N\Nc1nc2ccccc2s1)c1cccnn1 | 20.2 | > 100 | 20.1 | 20 | – | > 100 | > 100 | > 100 | 71.2 | 7.2 |
| COc1cc2c(cc1OCCCOc1cc3c(cc1OC)C(=O)N1CCC[C@H]1CN3)N=C[C@@H]1CCCN1C2=O | 0.709 | 0.749 | 0.473 | – | > 100 | 0.327 | 1.32 | 13.7 | > 100 | 0.671 |
| CCOC(=O)c1c(NC(=S)Nc2ccc(C)cc2)sc2c1CCN(C)C2 | > 100 | – | > 100 | > 100 | > 100 | > 100 | > 100 | > 100 | > 100 | > 100 |
| CC1OC(n2cc(F)c(=O)[nH]c2=O)C(O[Si](C)(C)C(C)(C)C)C1O[Si](C)(C)C(C)(C)C (configuration not stated) | 23 | – | 29.8 | 28.6 | 27.1 | 26.1 | 31.1 | 23.3 | 25.4 | 27.1 |
